Data on 2 compounds can be found in patent US11464770B2, “Anticancer pharmaceutical composition” (NATIONAL CANCER CENTER, priority 2016, dated 2022).

For series [1], the system named is zebrafish. As to the kind of experiment: Cardiotoxicity experiment using zebrafish (heart rate, lethality). It counts as in vivo. The note with it: 5 uM, n = 10.
In series [2] the test system is UM-UC-3: human urinary bladder transitional cell carcinoma. The experiment in a line: Cell based assay, cytotoxicity in UM-UC-3 cells. The note with it: UMUC3, 72 hours. On the procedure:
(§1) Commercially available bladder cancer, prostate cancer, lung cancer, breast cancer, blood cancer, pancreatic cancer, colorectal cancer, brain cancer, neuroblastoma, melanoma, liver cancer, cervical carcinoma, ovarian cancer, renal cancer, and papilloma cell lines were each treated with trypsin-EDTA and cultured, followed by being seeded in each well of a 96 well plate. After 24 hours of treatment at constant temperature, the respective cells were treated with the candidate compound so that a final concentration became 0 to 2 μM. The treated cells were additionally cultured for 72 hours, and cell viability was measured by using an ATP detection method (CellTiter-Glo® Luminescent Cell Viability Assay, Promega).

The test system of series [3] is human prostate cancer cell line (DU145). The experiment in a line: Tumor growth inhibition in animal model using DU145. The format is in vivo. The note with it: intraperitoneally administered twice a week, DU145 animal model (FIG. 2).
Series [4] has as its system human lung cancer cell line (NCI-H1299). As to the kind of experiment: Tumor growth inhibition in animal model using NCI-H1299. The format is in vivo. The note with it: intraperitoneally administered three times a week, NCI-H1299 animal model (FIG. 1).
Series [5] has as its system KU-19-19: Bladder carcinoma. The experiment in a line: Cell based assay, cytotoxicity in KU19-19 cells. The note with it: Homo sapiens, 72 hours. The protocol: as §1
Series [6] is described as follows: Cell based assay, cytotoxicity in RT4 papilloma cells (selectivity). More on the design: species or system human. The note with it: human; RT4 cells (benign), 72 hours.

Where only a bound is given, the exact number is not on record here.

With `CC(=O)c1c([S+]([O-])Cc2ccc([N+](=O)[O-])cc2)[nH]c2c(Br)ccc(Cl)c2c1=O` (stereo not shown) [Compound 33, 3-acetyl-8-bromo-5-chloro-2-((4-nitrobenzyl)sulfinyl)quinolin-4(1H)-one], the “Changes (%) in heart rate” value in series [1] (mean) was 97.3%. Also, the Lethality in series [1] is reported as 0/10.

Usually IC50 stands for the concentration at which inhibition is half-maximal. `CC(=O)c1c([S+]([O-])Cc2ccc(SC(F)(F)F)cc2)[nH]c2c(Br)ccc(Cl)c2c1=O` (stereo not shown) [Compound 56, 3-acetyl-8-bromo-5-chloro-2-((4-((trifluoromethyl)thio)benzyl)sulfinyl)quinolin-4(1H)-one]: the half-inhibitory concentration (IC50) in series [2] was 1.25 µM; in series [5], 0.9 µM. Also, the “Effect of inhibiting tumor growth” value in series [3] and in series [4] was “effect of inhibiting tumor growth” each time. This compound also gave a 50% inhibitory concentration (IC50) at 72 h in series [6] above 10 µM.
